≈ marks a conversion by molar mass, not a printed value. Where a name gives a salt, the structure may show the parent alone. Read-outs that look alike come from different tables or passages of the source.
Key:
Format in all cases: cell-based
[1] = system: Fusarium falciforme FS1 (ATCC MYA-3636); experiment: Fungal MIC Protocol, Fusarium falciforme; settings: Fusarium falciforme, read-out: MIC Fusarium falciforme 3636
Description: (§1) Fungal MIC Protocol: RPMI/MOPS media (Roswell Park Memorial Institute/3-morpholinopropane-1-sulfonic acid media) is prepared by dissolving 8.4 grams RPMI […] (Sigma cat #R1383), 34.52 grams MOPS buffer (Sigma cat #M3.183) and 2 […] glucose in 900 mL deionized water. The pH is adjusted to 7.0 with NaOH and filter sterilized. 0.1 mL, of a stock spore suspension (or loop from frozen stock) is inoculated to a 75 mL tissue culture flask (Falcon cat #353136) containing 50 mL of Potato Dextrose Agar (PDA, 24 grams PD broth (Fisher cat #DF 0549179), 20 grams agar (Fisher cat #BP 1423500) per liter water). Aspergillus and Fusarium strains are grown at 35° C. and Mucor strains are grown at room temperature for 3-5 days. Spores are harvested by flooding the flask with 5 mL phosphate buffered saline (PBS) pH 7.4+0.1% Tween-20 and several glass beads (Fisher cat #S800243) are added to aid in agitation. The supernatant is removed and the OD530 of a 1:100 dilution is measured. Spores are diluted in RPMI/MOPS to a final OD530 of 0.002 for Aspergillus and an OD530 of 0.005 for Fusarium and Mucor. The final concentration of spores is approximately 2×10^4 cfu/mL. Test compound(s) are diluted to 200 ug/mL in RPMI/MOPS ([…]). Ten (10) serial dilutions are prepared with RPMI/MOPS in a 96-well round bottom plate (Fisher cat #353136). For Mucor strains a sterile flat-bottom 96-well plate is used. 50 μl of compound dilutions in duplicate are added to a sterile 96-well round bottom plate. 50 ul of diluted spores are added to the compound-containing plates. Control wells include 1) compound but no cells and 2) spores but no compound. Mix the plates gently by hand, place in ziplock bags and
(§2) incubate at 35° C. for 48 hours. […]

[2] = system: Aspergillus fumigatus T33439 (ATCC MYA-3626); experiment: Fungal MIC Protocol, Aspergillus fumigatus; settings: Aspergillus fumigatus, read-out: MIC Aspergillus fumigatus 3626
Description: as §1, §2

[3] = system: Aspergillus flavus AFL1 (ATCC MYA-3631); experiment: Fungal MIC Protocol, Aspergillus flavus; settings: Aspergillus flavus, read-out: MIC Aspergillus flavus 3631
Description: as §1, §2

[4] = system: Mucor ramosissimus 057718 (ATCC 90286); experiment: Fungal MIC Protocol, Mucor ramosissimus (MIC-50); settings: Mucor ramosissimus, read-out: MIC-50 Mucorales ramosissimus 90286
Description: as §1
(§3) incubate at 35° C. for 48 hours. Score the MIC visually (lowest concentration of compound showing >50% growth inhibition) using an inverted mirror.

[5] = system: Fusarium solani (ATCC 58877); experiment: Fungal MIC Protocol, Fusarium solani; settings: Fusarium solani, read-out: MIC Fusarium solani 58877
Description: as §1, §2

[6] = system: Mucor circinelloides 1463(62) (ATCC 26759); experiment: Fungal MIC Protocol, Mucor circinelloides (MIC-50); settings: Mucor circinelloides, read-out: MIC-50 Mucorales circinelloides 26579
Description: as §1, §3

[7] = 100% growth inhibition at 48 hours
[8] = ATCC90286, 50% growth inhibition at 48 hours
[9] = ATCC58877, 100% growth inhibition at 48 hours
[10] = ATCC26759, 50% growth inhibition at 48 hours

Structure (SMILES) | MIC [1, 7] [µg/mL] | MIC [2, 7] [µg/mL] | MIC [3, 7] [µg/mL] | MIC50 [4, 8] [µg/mL] | MIC [5, 9] [µg/mL] | MIC50 [6, 10] [µg/mL] | MIC ([1]; 48 h) [µg/mL] | MIC ([2]; 48 h) [µg/mL] | MIC ([3]; 48 h) [µg/mL] | MIC50 ([4]; ATCC90286, 48 h) [µg/mL] | MIC ([5]; ATCC58877, 48 h) [µg/mL] | MIC50 ([6]; ATCC26759, 48 h) [µg/mL]
CC(CO)n1c(-c2ccc(C3=CCN(C(=N)N)CC3)cc2F)nnc1-c1ccc(C2=CCN(C(=N)N)CC2)cc1F (stereo not shown) [Example 83, 4-(4-{5-[4-(1-carbamimidoyl-1,2,3,6-tetrahydropyridin-4-yl)-2-fluorophenyl]-4-(1-hydroxypropan-2-yl)-4H-1,2,4-triazol-3-yl}-3-fluorophenyl)-1,2,3,6-tetrahydropyridine-1-carboximidamide hydrochloride] | – | – | – | – | – | – | 0.2 | 0.39 | 0.78 | 12.5 | 0.2 | 1.56
COc1cc(-c2nnc(-c3ccc(C4=CCN(C(=N)N)CC4)c(OC)c3)n2CCO)ccc1C1=CCN(C(=N)N)CC1 [Example 76, 4-(4-{5-[4-(1-carbamimidoyl-1,2,3,6-tetrahydropyridin-4-yl)-3-methoxyphenyl]-4-(2-hydroxyethyl)-4H-1,2,4-triazol-3-yl}-2-methoxyphenyl)-1,2,3,6-tetrahydropyridine-1-carboximidamide trifluoroacetate] | – | – | – | – | – | – | 0.78 | 0.78 | 3.13 | 25 | 0.39 | 25
N=C(N)N1CC=C(c2ccc(-c3nnc(-c4ccc(C5=CCN(C(=N)N)CC5)cc4)n3C3CC3)cc2)CC1 [Example 4, 4,4′-(4,4′-(4-Cyclopropyl-4H-1,2,4-triazole-3,5-diyl)bis(4,1-phenylene)) bis(5,6-dihydropyridine-1(2H)-carboximidamide)] | < 0.1 | < 0.1 | 0.39 (≈ 0.768 µM) | 1.56 (≈ 3.07 µM) | 0.2 (≈ 0.394 µM) | 0.39 (≈ 0.768 µM) | – | – | – | – | – | –
CC(C)(O)Cn1c(-c2ccc(C3=CCN(C(=N)N)CC3)cc2F)nnc1-c1ccc(C2=CCN(C(=N)N)CC2)cc1F [Example 74, 4-(4-{5-[4-(1-carbamimidoyl-1,2,3,6-tetrahydropyridin-4-yl)-2-fluorophenyl]-4-(2-hydroxy-2-methylpropyl)-4H-1,2,4-triazol-3-yl}-3-fluorophenyl)-1,2,3,6-tetrahydropyridine-1-carboximidamide hydrochloride] | – | – | – | – | – | – | 0.1 | 0.39 | 0.78 | 3.13 | 0.1 | 1.56
N=C(N)N1CC=C(c2ccc(-c3nnc(-c4ccc(C5=CCN(C(=N)N)CC5)cc4)n3Cc3ccccc3)cc2)CC1 [Example 5, 4,4′-(4,4′-(4-Benzyl-4H-1,2,4-triazole-3,5-diyl)bis(4,1-phenylene))bis(5,6-dihydropyridine-1(2H)-carboximidamide)] | < 0.1 | 0.39 (≈ 0.699 µM) | 1.56 (≈ 2.8 µM) | 6.25 (≈ 11.2 µM) | 0.39 (≈ 0.699 µM) | 1.56 (≈ 2.8 µM) | – | – | – | – | – | –
CC(O)Cn1c(-c2ccc(C3=CCN(C(=N)N)CC3)cc2F)nnc1-c1ccc(C2=CCN(C(=N)N)CC2)cc1F (stereo not shown) [Example 66, 4-(4-{5-[4-(1-carbamimidoyl-1,2,3,6-tetrahydropyridine-4-yl)-2-fluorophenyl]-4-(2-hydroxypropyl)-4H-1,2,4-triazol-3-yl}-3-fluorophenyl)-1,2,3,6-tetrahydropyridine-1-carboximidamide trifluoroacetate] | – | – | – | – | – | – | 0.1 | 0.2 | 0.39 | 6.25 | 0.2 | 1.56
N=C(N)N1CC=C(c2ccc(-c3nnc(-c4ccc(C5=CCN(C(=N)N)CC5)c(C(F)(F)F)c4)n3CCO)cc2C(F)(F)F)CC1 [Example 80, 4-(4-{5-[4-(1-carbamimidoyl-1,2,3,6-tetrahydropyridin-4-yl)-3-(trifluoromethyl)phenyl]-4-(2-hydroxyethyl)-4H-1,2,4-triazol-3-yl}-2-(trifluoromethyl)phenyl)-1,2,3,6-tetrahydropyridine-1-carboximidamide hydrochloride] | – | – | – | – | – | – | 25 | 25 | 25 | 25 | 25 | 25
N=C(N)N1CC=C(c2ccc(-c3nnc(-c4ccc(C5=CCN(C(=N)N)CC5)cc4F)n3CCOCCO)c(F)c2)CC1 [Example 77, 4-(4-{5-[4-(1-carbamimidoyl-1,2,3,6-tetrahydropyridin-4-yl)-2-fluorophenyl]-4-[2-(2-hydroxyethoxy)ethyl]-4H-1,2,4-triazol-3-yl}-3-fluorophenyl)-1,2,3,6-tetrahydropyridine-1-carboximidamide trifluoroacetate] | – | – | – | – | – | – | 0.2 | 0.2 | 0.78 | 25 | 0.2 | 6.25
CC(C)Nc1cc(C2=CCN(C(=N)N)CC2)ccc1-c1nnc(-c2ccc(C3=CCN(C(=N)N)CC3)cc2F)n1C(C)C [Example 26, 4-(4-(5-(4-(1-Carbamimidoyl-1,2,3,6-tetrahydropyridin-4-yl)-2-(isopropylamino)phenyl)-4-isopropyl-4H-1,2,4-triazol-3-yl)-3-fluorophenyl)-5,6-dihydro pyridine-1(2H)-carboximidamide] | – | 100 (≈ 171 µM) | 12.5 (≈ 21.4 µM) | 100 (≈ 171 µM) | – | 12.5 (≈ 21.4 µM) | – | – | – | – | – | –

Continued, in another order:

MIC [1, 7] [µg/mL] | MIC [2, 7] [µg/mL] | MIC [3, 7] [µg/mL] | MIC50 [4, 8] [µg/mL] | MIC [5, 9] [µg/mL] | MIC50 [6, 10] [µg/mL] | Structure (SMILES) | MIC ([1]; 48 h) [µg/mL] | MIC ([2]; 48 h) [µg/mL] | MIC ([3]; 48 h) [µg/mL] | MIC50 ([4]; ATCC90286, 48 h) [µg/mL] | MIC ([5]; ATCC58877, 48 h) [µg/mL] | MIC50 ([6]; ATCC26759, 48 h) [µg/mL]
< 0.1 | < 0.1 | < 0.1 | > 100 | < 0.1 | > 100 | Cn1c(-c2ccc(C3=CCN(C(=N)N)C3)cc2F)nnc1-c1ccc(C2=CCN(C(=N)N)C2)cc1F [Example 28, 3,3′-(4,4′-(4-Methyl-4H-1,2,4-triazole-3,5-diyl)bis(3-fluoro-4,1-phenylene)) bis(2,5-dihydro-1H-pyrrole-1-carboximidamide)] | – | – | – | – | – | –
0.2 | 0.39 | 0.78 | 12.5 | 0.1 | 6.25 | CN(C)CCn1c(-c2ccc(C3=CCN(C(=N)N)CC3)cc2F)nnc1-c1ccc(C2=CCN(C(=N)N)CC2)cc1F.Cl [Example 72, 4-(4-{5-[4-(1-carbamimidoyl-1,2,3,6-tetrahydropyridin-4-yl)-2-fluorophenyl]-4-[2-(dimethylamino)ethyl]-4H-1,2,4-triazol-3-yl}-3-fluorophenyl)-1,2,3,6-tetrahydropyridine-1-carboximidamide hydrochloride] | – | – | – | – | – | –
0.1 (≈ 0.165 µM) | 0.39 (≈ 0.644 µM) | 0.78 (≈ 1.29 µM) | 6.25 (≈ 10.3 µM) | 0.1 (≈ 0.165 µM) | 1.56 (≈ 2.58 µM) | COCCOCCn1c(-c2ccc(C3=CCN(C(=N)N)CC3)cc2F)nnc1-c1ccc(C2=CCN(C(=N)N)CC2)cc1F [Example 81, 4-(4-{5-[4-(1-carbamimidoyl-1,2,3,6-tetrahydropyridin-4-yl)-2-fluorophenyl]-4-[2-(2-methoxyethoxy)ethyl]-4H-1,2,4-triazol-3-yl}-3-fluorophenyl)-1,2,3,6-tetrahydropyridine-1-carboximidamide] | – | – | – | – | – | –
1.56 (≈ 2.86 µM) | 6.25 (≈ 11.5 µM) | 6.25 (≈ 11.5 µM) | 50 (≈ 91.6 µM) | 1.56 (≈ 2.86 µM) | 6.25 (≈ 11.5 µM) | Cn1c(-c2ccc(C3=CCC(NC(=N)N)CC3)cc2F)nnc1-c1ccc(C2=CCC(NC(=N)N)CC2)cc1F (stereo not shown) [Example 40, 1-[4-(4-{5-[4-(4-Carbamimidamidocyclohex-1-en-1-yl)-2-fluorophenyl]-4-methyl-4H-1,2,4-triazol-3-yl}-3-fluorophenyl)cyclohex-3-en-1-yl]guanidine] | – | – | – | – | – | –

Reference: patent US20240018121A1, “NOVEL HETEROAROMATIC COMPOUNDS EXHIBITING ANTIFUNGAL ACTIVITY AND THEIR METHOD OF USE” (FOX CHASE CHEMCIAL DIVERSITY CENTER, INC., priority 2020, published 2024)
